Key:
[1] = Fraction absorbed in rat; type: ADME; conditions: in vivo, read-out: Fabs
[2] = Fraction absorbed in dog; type: ADME, Canis lupus familiaris; conditions: in vivo, read-out: Fabs
[3] = Fraction absorbed in cynomolgus monkey; type: ADME, Macaca fascicularis; conditions: in vivo, read-out: Fabs
[4] = Cytotoxicity against human HuH7 cells infected with HCV genotype 1b Con-1 assessed as reduction in cell viability incubated for 5 days by CellTiter-Glo luminescent assay; type: cell-based, Huh-7
[5] = Oral bioavailability in rat at 2 mg/kg; type: ADME, organism-based; conditions: in vivo
[6] = Unbound drug level in human plasma; type: ADME, cell-free
[7] = Unbound drug level in rat plasma; type: ADME, cell-free
[8] = Half life in human at 100 mg, po; type: ADME; conditions: in vivo
[9] = Unbound drug level in dog plasma; type: ADME, cell-free, Canis lupus familiaris
[10] = Selectivity index, ratio of CC50 for human MRC5 cells infected with HCV genotype 1a H77 to EC50 for NS5A in HCV genotype 1a H77 infected in human MRC5 replicon cells; type: toxicity, cell-based; conditions: read-out: Ratio CC50/EC50
[11] = Selectivity index, ratio of CC50 for human PC3 cells infected with HCV genotype 1a H77 to EC50 for NS5A in HCV genotype 1a H77 infected in human PC3 replicon cells; type: toxicity, cell-based; conditions: read-out: Ratio CC50/EC50
[12] = Clearance in monkey at 0.5 mg/kg, iv; type: ADME, organism-based, Macaca mulatta; conditions: rhesus monkey, in vivo
[13] = Clearance in rat at 2 mg/kg, iv; type: ADME, organism-based; conditions: in vivo
[14] = Oral bioavailability in human at 100 mg; type: ADME, organism-based; conditions: in vivo
[15] = Volume of distribution at steady state in monkey at 0.5 mg/kg, iv; type: ADME, organism-based, Macaca mulatta; conditions: rhesus monkey, in vivo, read-out: Vdss
[16] = Clearance in dog at 0.25 mg/kg, iv; type: ADME, organism-based, Canis lupus familiaris; conditions: in vivo
[17] = Cytotoxicity against human MT4 cells infected with HCV genotype 1b Con-1 assessed as reduction in cell viability incubated for 5 days by CellTiter-Glo luminescent assay; type: cell-based
[18] = Oral bioavailability in monkey at 1 mg/kg; type: ADME, organism-based, Macaca mulatta; conditions: rhesus monkey, in vivo
[19] = Cytotoxicity against human MRC5 cells infected with HCV genotype 1b Con-1 assessed as reduction in cell viability incubated for 5 days by CellTiter-Glo luminescent assay; type: cell-based
[20] = Oral bioavailability in dog at 0.5 mg/kg; type: ADME, organism-based, Canis lupus familiaris; conditions: in vivo
[21] = Half life in rat at 2 mg/kg, iv; type: ADME, organism-based; conditions: in vivo
[22] = Cytotoxicity against human HepG2 cells infected with HCV genotype 1a H77 assessed as reduction in cell viability incubated for 5 days by CellTiter-Glo luminescent assay; type: cell-based
[23] = Cytotoxicity against human MT4 cells infected with HCV genotype 1a H77 assessed as reduction in cell viability incubated for 5 days by CellTiter-Glo luminescent assay; type: cell-based
[24] = Selectivity index, ratio of CC50 for human HepG2 cells infected with HCV genotype 1a H77 to EC50 for NS5A in HCV genotype 1a H77 infected in human HepG2 replicon cells; type: toxicity, cell-based; conditions: read-out: Ratio CC50/EC50
[25] = Cytotoxicity against human HepG2 cells infected with HCV genotype 1b Con-1 assessed as reduction in cell viability incubated for 5 days by CellTiter-Glo luminescent assay; type: cell-based
[26] = Half life in monkey at 0.5 mg/kg, iv; type: ADME, organism-based, Macaca mulatta; conditions: rhesus monkey, in vivo
[27] = Cytotoxicity against human PC3 cells infected with HCV genotype 1a H77 assessed as reduction in cell viability incubated for 5 days by CellTiter-Glo luminescent assay; type: cell-based, PC-3
[28] = Cytotoxicity against human MRC5 cells infected with HCV genotype 1a H77 assessed as reduction in cell viability incubated for 5 days by CellTiter-Glo luminescent assay; type: cell-based
[29] = Cytotoxicity against human HuH7 cells infected with HCV genotype 1a H77 assessed as reduction in cell viability incubated for 5 days by CellTiter-Glo luminescent assay; type: cell-based, Huh-7
[30] = Half life in dog at 0.25 mg/kg, iv; type: ADME, organism-based, Canis lupus familiaris; conditions: in vivo
[31] = Unbound drug level in monkey plasma; type: ADME, cell-free, Macaca mulatta; conditions: rhesus monkey
[32] = Volume of distribution at steady state in rat at 2 mg/kg, iv; type: ADME, organism-based; conditions: in vivo, read-out: Vdss
[33] = Selectivity index, ratio of CC50 for human Huh7 cells infected with HCV genotype 1a H77 to EC50 for NS5A in HCV genotype 1a H77 infected in human HuH7 replicon cells; type: toxicity, cell-based; conditions: read-out: Ratio CC50/EC50
[34] = Volume of distribution at steady state in dog at 0.25 mg/kg, iv; type: ADME, organism-based, Canis lupus familiaris; conditions: in vivo, read-out: Vdss
[35] = Cytotoxicity against human PC3 cells infected with HCV genotype 1b Con-1 assessed as reduction in cell viability incubated for 5 days by CellTiter-Glo luminescent assay; type: cell-based, PC-3
[36] = Selectivity index, ratio of CC50 for human MT4 cells infected with HCV genotype 1a H77 to EC50 for NS5A in HCV genotype 1a H77 infected in human MT4 replicon cells; type: toxicity, cell-based; conditions: read-out: Ratio CC50/EC50
[37] = target: T1, Nonstructural protein 5A (Hepatitis C virus) (UniProt Q5L478); test: Potency index, ratio of EC50 of ledipasvir to EC50 of test compound for inhibition of NS5A in HCV genotype 2a J6 infected in human HuH7 replicon cells assessed as reduction in viral replication after 3 days by luciferase reporter gene assay; type: cell-based; conditions: Hepatitis C virus subtype 2a
T1 sequence (whole entry): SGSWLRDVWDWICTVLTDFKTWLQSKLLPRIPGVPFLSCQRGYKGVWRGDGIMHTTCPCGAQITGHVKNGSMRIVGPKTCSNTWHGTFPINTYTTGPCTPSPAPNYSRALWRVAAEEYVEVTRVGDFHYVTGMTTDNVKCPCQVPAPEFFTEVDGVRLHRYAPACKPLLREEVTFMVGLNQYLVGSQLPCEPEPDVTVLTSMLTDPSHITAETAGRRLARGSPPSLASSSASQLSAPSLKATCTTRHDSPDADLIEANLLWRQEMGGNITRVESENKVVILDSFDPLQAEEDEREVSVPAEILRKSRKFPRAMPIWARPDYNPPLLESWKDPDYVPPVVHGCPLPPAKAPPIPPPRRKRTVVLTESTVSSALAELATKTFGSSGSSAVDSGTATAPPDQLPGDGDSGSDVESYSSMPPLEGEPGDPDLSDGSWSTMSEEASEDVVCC

[38] = target: T1, Nonstructural protein 5A (Hepatitis C virus); test: Potency index, ratio of EC50 of ledipasvir to EC50 of test compound for inhibition of NS5A in HCV genotype 3a infected in human HuH7 replicon cells assessed as reduction in viral replication after 3 days by luciferase reporter gene assay; type: cell-based; conditions: Hepatitis C virus subtype 3a
[39] = target: T1, Nonstructural protein 5A (Hepatitis C virus); test: Potency index, ratio of EC50 of ledipasvir to EC50 of test compound for inhibition of NS5A in HCV genotype 2b infected in human HuH7 replicon cells assessed as reduction in viral replication after 3 days by luciferase reporter gene assay; type: cell-based; conditions: Hepatitis C virus subtype 2b

COC(=O)N[C@@H](C(=O)N1C[C@@H](C)C[C@H]1c1ncc(-c2cc3c4c(c2)OCc2cc(-c5cnc([C@@H]6C[C@H](C)CN6C(=O)[C@H](NC(=O)OC)c6ccccc6)[nH]5)cc(c2-4)OC3)[nH]1)c1ccccc1 gave a Fa [1] of 2% and a Fa [2] of 30%.

For COC(=O)N[C@H](C(=O)N1CCC[C@H]1c1ncc(-c2ccc3c(c2)COc2cc4c(ccc5nc([C@@H]6CCCN6C(=O)[C@@H](NC(=O)OC)C(C)C)[nH]c54)cc2-3)[nH]1)C(C)C, the Fa [1] was 15% and the Fa [2] was 50%.

For COC(=O)N[C@@H](C(=O)N1[C@@H](C)CC[C@H]1c1ncc(-c2cc3c4c(c2)OCc2cc(-c5cnc([C@@H]6CC[C@H](C)N6C(=O)[C@H](NC(=O)OC)c6ccccc6)[nH]5)cc(c2-4)OC3)[nH]1)c1ccccc1, the Fa [1] was 3% and the Fa [2] was 43%.

Compound COC(=O)N[C@@H](C(=O)N1CCC[C@H]1c1ncc(-c2cc3c4c(c2)OCc2cc(-c5cnc([C@@H]6CCCN6C(=O)[C@H](NC(=O)OC)c6ccccc6)[nH]5)cc(c2-4)OC3)[nH]1)c1ccccc1 has a Fa [3] of 2%, a Fa [1] of 2% and a Fa [2] of 34%.

Work on COC[C@H]1C[C@@H](c2ncc(-c3ccc4c(c3)COc3cc5c(ccc6nc([C@@H]7CC[C@H](C)N7C(=O)[C@@H](NC(=O)OC)C(C)C)[nH]c65)cc3-4)[nH]2)N(C(=O)[C@H](NC(=O)OC)c2ccccc2)C1 [VELPATASVIR] yielded a CC50 at 120 h [4] of over 44.4 µM, a Fa [3] of 37% and a bioavailability [5] of 28%. It also gave a Fu [6] of 0.3%, a Fu [7] of 0.2% and a half-life [8] of 15.7 h. For the same compound, the Fu [9] was 0.2%, the Fa [1] was 36% and the selectivity ratio [10] was over 4.9e+06. It also gave a selectivity ratio [11] of over 4.9e+06, a clearance [12] of 5 mL/min/kg and a clearance [13] of 15.7 mL/min/kg. It also gave a bioavailability [14] of 50%, a Vd [15] of 1.6 L/kg and a clearance [16] of 4.17 mL/min/kg. The Fa [2] was 29%, the CC50 at 120 h [17] was over 44.4 µM and the bioavailability [18] was 30%. It also gave a CC50 at 120 h [19] of over 44.4 µM, a bioavailability [20] of 25% and a half-life [21] of 2.25 h. It also gave a CC50 at 120 h [22] of over 44.4 µM, a CC50 at 120 h [23] of over 44.4 µM and a selectivity ratio [24] of over 4.9e+06. The CC50 at 120 h [25] was over 44.4 µM, the half-life [26] was 5.03 h and the CC50 at 120 h [27] was over 44.4 µM. It also gave a CC50 at 120 h [28] of over 44.4 µM, a CC50 at 120 h [29] of over 44.4 µM and a half-life [30] of 5.2 h. The Fu [31] was 0.4%, the Vd [32] was 1.61 L/kg and the selectivity ratio [33] was over 4.9e+06. It also gave a Vd [34] of 1.43 L/kg, a CC50 at 120 h [35] of over 44.4 µM and a selectivity ratio [36] of over 4.9e+06.

With COC(=O)N[C@H](C(=O)N1CCC[C@H]1c1ncc(-c2ccc3c(c2)COc2c-3ccc3c2ccc2nc([C@@H]4CCCN4C(=O)[C@@H](NC(=O)OC)C(C)C)[nH]c23)[nH]1)C(C)C the Fa [1] was 31% and the Fa [2] was 54%.

Work on COC[C@H]1C[C@@H](c2ncc(-c3ccc4c(c3)COc3cc5c(ccc6nc([C@@H]7CCCN7C(=O)[C@@H](NC(=O)OC)C(C)C)[nH]c65)cc3-4)[nH]2)N(C(=O)[C@H](NC(=O)OC)c2ccccc2)C1 yielded a Fa [3] of 3% and a Fa [1] of 12%.

Compound COC[C@H]1C[C@@H](c2ncc(-c3ccc4c(c3)COc3cc5c(ccc6nc([C@@H]7C[C@@H]8C[C@H]8N7C(=O)[C@@H](NC(=O)OC)C(C)C)[nH]c65)cc3-4)[nH]2)N(C(=O)[C@H](NC(=O)OC)c2ccccc2)C1 has a Fa [1] of 13%.

With COC[C@H]1C[C@@H](c2ncc(-c3cc4c5c(c3)OCc3cc(-c6cnc([C@@H]7CC[C@H](C)N7C(=O)[C@@H](NC(=O)OC)C(C)C)[nH]6)cc(c3-5)OC4)[nH]2)N(C(=O)[C@H](NC(=O)OC)c2ccccc2)C1 the Fa [3] was 26% and the Fa [1] was 29%.

With COC(=O)N[C@H](C(=O)N1CCC[C@H]1c1ncc(-c2cc3c4c(c2)OCc2cc(-c5cnc([C@@H]6CCCN6C(=O)[C@@H](NC(=O)OC)C(C)C)[nH]5)cc(c2-4)OC3)[nH]1)C(C)C the Fa [3] was 15%, the Fa [1] was 23% and the Fa [2] was 70%. It also gave a Ratio EC50 [37] of 28, a Ratio EC50 [38] of 4800 and a Ratio EC50 [39] of 300.

COC[C@H]1C[C@@H](c2ncc(-c3ccc4c(c3)COc3cc5c(ccc6nc([C@@H]7C[C@H](COC)CN7C(=O)[C@@H](NC(=O)OC)C(C)C)[nH]c65)cc3-4)[nH]2)N(C(=O)[C@@H](NC(=O)OC)C(C)C)C1 showed a Fa [1] of 10%.

Reference: ChEMBL document CHEMBL4385622, “Discovery of velpatasvir (GS-5816): A potent pan-genotypic HCV NS5A inhibitor in the single-tablet regimens Vosevi® and Epclusa®” (Bioorg Med Chem Lett, 2019)
